According to US7592364B2, “Substituted gamma lactams as therapeutic agents” (Allergan, Inc., priority 2006, dated 2009):
pEC50, pKi: −log10 of the molar value.

Key:
[1] = molecular target: T1, hEP2/Gqs5 (Homo sapiens, UniProt P43116); assay: EP2 FLIPR calcium signal study; type: cell-based; conditions: HEK-293(EBNA) cells expressing hEP2/Gqs5; unit inferred
T1 construct: expressed in transfected cells; host or cells: HEK-293(EBNA)
Description: (§1) Methods for FLIPR™ Studies
(§2) HEK-293(EBNA) cells, stably expressing one type or subtype of recombinant human prostaglandin receptors (prostaglandin receptors expressed: hDP/Gqs5; hEP1; hEP2/Gqs5; hEP3A/Gqi5; hEP4/Gqs5; hFP; hIP; hTP), were cultured in 100 mm culture dishes in high-glucose DMEM medium containing 10% fetal bovine serum, 2 mM 1-glutamine, 250 μg/ml geneticin (G418) and 200 μg/ml hygromycin B as selection markers, and 100 units/ml penicillin G, 100 μg/ml streptomycin and 0.25 μg/ml amphotericin B.
(§3) (b) Calcium Signal Studies on The FLIPR™
(§4) Cells were seeded at a density of 5×10^4 cells per well in Biocoat® Poly-D-lysine-coated black-wall, clear-bottom 96-well plates (Becton-Dickinson) and allowed to attach overnight in an incubator at 37° C. Cells were then washed two times with HBSS-HEPES buffer (Hanks Balanced Salt Solution without bicarbonate and phenol red, 20 mM HEPES, pH 7.4) using a Denley Cellwash plate washer (Labsystems). After 45 minutes of dye-loading in the dark, using the calcium-sensitive dye Fluo-4 […] at a final concentration of 2 μM, plates were washed four times with HBSS-HEPES buffer to remove excess dye leaving 100 μl in each well. Plates were re-equilibrated to 37° C. for a few minutes.
(§5) Cells were excited with an Argon laser at 488 nm, and emission was measured through a 510-570 nm bandwidth emission filter (FLIPR™, Molecular Devices, Sunnyvale, Calif.). Drug solution was added in a 50 μl volume to each well to give the desired final concentration. The peak increase in fluorescence intensity was recorded for each well. On each plate, four wells each served as negative (HBSS-HEPES buffer) and positive controls (standard agonists: BW245C (hDP); PGE2 (hEP1; hEP2/Gqs5; hEP3A/Gqi5; hEP4/Gqs5); PGF2α (hFP); carbacyclin (hIP); U-46619 (hTP), depending on receptor). The peak fluorescence change in each drug-containing well was then expressed relative to the controls.
(§6) Compounds were tested in a high-throughput (HTS) or concentration-response (CoRe) format. In the HTS format, forty-four compounds per plate were examined in duplicates at a concentration of 10^−5 M. To generate concentration-response curves, four compounds per plate were tested in duplicates in a concentration range between 10^−5 and 10^−11 M. The duplicate values were averaged. In either, HTS or CoRe format each compound was tested on at least 3 separate plates using cells from different passages to give an n>3.

[2] = molecular target: T2, EP2 (Homo sapiens, UniProt P43116); assay: EP2 cAMP assay; type: cell-based; conditions: unit inferred
T2 sequence (P43116 whole entry): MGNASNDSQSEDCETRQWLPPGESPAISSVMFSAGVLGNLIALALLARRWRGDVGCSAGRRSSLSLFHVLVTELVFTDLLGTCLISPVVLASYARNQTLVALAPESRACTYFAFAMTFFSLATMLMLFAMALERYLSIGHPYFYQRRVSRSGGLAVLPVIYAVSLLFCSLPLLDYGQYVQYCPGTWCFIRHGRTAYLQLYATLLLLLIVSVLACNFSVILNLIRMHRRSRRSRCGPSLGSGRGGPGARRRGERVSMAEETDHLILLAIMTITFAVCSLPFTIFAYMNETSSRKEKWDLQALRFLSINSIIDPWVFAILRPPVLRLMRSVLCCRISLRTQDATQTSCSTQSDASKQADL

[3] = molecular target: T3, EP4 receptors (Homo sapiens, UniProt P35408); assay: EP4 radioligand binding (Ki) vs [3H]PGE2; conditions: unit inferred
T3 construct: expressed in transfected cells; host or cells: HEK-293
T3 sequence (P35408 whole entry): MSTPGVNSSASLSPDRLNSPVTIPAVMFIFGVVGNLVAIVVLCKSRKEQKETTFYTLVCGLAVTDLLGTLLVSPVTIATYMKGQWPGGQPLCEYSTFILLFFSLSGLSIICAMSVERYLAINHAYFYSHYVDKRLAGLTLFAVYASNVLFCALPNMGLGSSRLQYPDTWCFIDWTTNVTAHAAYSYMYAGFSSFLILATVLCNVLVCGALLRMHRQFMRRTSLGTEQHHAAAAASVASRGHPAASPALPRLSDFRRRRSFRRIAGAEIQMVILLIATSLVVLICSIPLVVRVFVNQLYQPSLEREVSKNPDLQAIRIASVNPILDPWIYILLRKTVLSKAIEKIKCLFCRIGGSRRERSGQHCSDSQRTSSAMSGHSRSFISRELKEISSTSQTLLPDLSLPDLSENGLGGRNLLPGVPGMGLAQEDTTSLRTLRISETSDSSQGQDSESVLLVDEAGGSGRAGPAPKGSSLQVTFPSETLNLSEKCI
Description: (§7) Cells Stably Expressing EP1, EP2, EP4 and FP Receptors
(§8) HEK-293 cells stably expressing the human or feline FP receptor, or EP1, EP2, or EP4 receptors were washed with TME buffer, scraped from the bottom of the flasks, and homogenized for 30 sec using a Brinkman PT 10/35 polytron. TME buffer was added to achieve a final 40 ml volume in the centrifuge tubes (the composition of TME is 100 mM TRIS base, 20 mM MgCl2, […]; 10N HCl is added to achieve a pH of 7.4).
(§9) The cell homogenate was centrifuged at 19000 r.p.m. for 20 min at 4° C. using a Beckman Ti-60 rotor. The resultant pellet was resuspended in TME buffer to give a final 1 mg/ml protein concentration, as determined by Biorad assay. Radioligand binding competition assays vs. [^3H-]17-phenyl PGF2α (5 nM) were performed in a […] volume for 60 min. Binding reactions were started by adding plasma membrane fraction. The reaction was terminated by the addition of 4 ml ice-cold TRIS-HCl buffer and rapid filtration through glass fiber GF/B filters using a Brandel cell harvester. The filters were washed 3 times with ice-cold buffer and oven dried for one hour.
(§10) [^3H-] PGE2 (specific activity 180 Ci mmol) was used as the radioligand for EP receptors. [^3H] 17-phenyl PGF2, was employed for FP receptor binding studies. Binding studies employing EP1, EP2, EP4 and FP receptors were performed in duplicate in at least three separate experiments. A 200 μl assay volume was used. Incubations were for 60 min at 25° C. and were terminated by the addition of 4 ml of ice-cold 50 mM TRIS-HCl, followed by rapid filtration through Whatman GF/B filters and three additional 4 ml washes in a cell harvester (Brandel). Competition studies were performed using a final concentration of 5 nM [^3H]-PGE2, or 5 nM [^3H] 17-phenyl PGF2, and non-specific binding determined with 10^−5M of unlabeled PGE2, or 17-phenyl PGF2α, according to receptor subtype studied.

[4] = molecular target: T2, EP2; assay: EP2 competition binding (Ki) vs [3H]PGE2; set-up: expressed in transfected cells; host or cells: HEK 293; conditions: HEK 293 cells stably expressing human EP2, [3H]PGE2; unit inferred
Description: Competition binding experiments were performed in a medium containing Hank's balanced salt solution, Hepes 20 mM, pH 7.3, membranes (˜60 μg protein) or 2×10^5 cells from HEK 293 cells stably expressing human EP2 receptors, [^3H]PGE2 (10 nM) and various concentrations of test compounds in a total volume of 300 μl. Reaction mixtures were incubated at 23° C. for 60 min, and were filtered over Whatman GF/B filters under vacuum. Filters were washed three times with 5 ml ice-cold buffer containing 50 mM Tris/HCl (pH 7.3). Non-specific binding was estimated in the presence of excess unlabeled PGE2 (10 μM). Binding data fitted to the binding model for a single class of binding sites, using nonlinear regression analysis. IC50 values thus obtained were converted to Ki using the equation of Ki=(IC50/(1+[L]/KD) where [L] represents PGE2 concentration (10 nM) and KD the dissociation constant for [^3H]PGE2 at human EP2 receptors (40 nM).
as §7, §8, §9, §10

[5] = molecular target: T4, hDP/Gqs5 (Homo sapiens, UniProt Q13258); assay: hDP FLIPR calcium signal study; type: cell-based; conditions: HEK-293(EBNA) cells expressing hDP/Gqs5; read-out: Other Receptors (EC50 in nM) hDP
T4 construct: expressed in transfected cells; host or cells: HEK-293(EBNA)
T4 sequence (Q13258 1-359): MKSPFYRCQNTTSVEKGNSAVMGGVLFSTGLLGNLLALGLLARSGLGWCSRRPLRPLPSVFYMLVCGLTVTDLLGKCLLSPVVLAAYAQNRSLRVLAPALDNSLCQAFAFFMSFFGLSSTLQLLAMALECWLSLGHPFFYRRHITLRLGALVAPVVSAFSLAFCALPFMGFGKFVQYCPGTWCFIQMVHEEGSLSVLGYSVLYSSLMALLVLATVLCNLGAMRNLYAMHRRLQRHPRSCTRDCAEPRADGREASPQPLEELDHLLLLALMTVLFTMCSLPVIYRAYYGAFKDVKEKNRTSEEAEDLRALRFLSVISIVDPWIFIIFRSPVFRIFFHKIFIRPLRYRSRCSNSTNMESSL
Description: as §1, §2, §3, §4, §5, §6

[6] = molecular target: T5, hEP4/Gqs5 (Homo sapiens, UniProt P35408); assay: EP4 FLIPR calcium signal study; type: cell-based; conditions: HEK-293(EBNA) cells expressing hEP4/Gqs5; unit inferred
T5 construct: expressed in transfected cells; host or cells: HEK-293(EBNA)
T5 sequence (P35408 whole entry): as the sequence (P35408 whole entry) above
Description: as §1, §2, §3
(§11) Cells were seeded at a density of 5×10^4 cells per well in Biocoat® Poly-D-lysine-coated black-wall, clear-bottom 96-well plates (Becton-Dickinson) and allowed to attach overnight in an incubator at 37° C. Cells were then washed two times with HBSS-HEPES buffer (Hanks Balanced Salt Solution without bicarbonate and phenol red, 20 mM HEPES, pH 7.4) using a Denley Cellwash plate washer (Labsystems). […]
(§12) Cells were excited with an Argon laser at 488 nm, and emission was measured through a 510-570 nm bandwidth emission filter (FLIPR™, Molecular Devices, Sunnyvale, Calif.). […] The peak increase in fluorescence intensity was recorded for each well. […] The peak fluorescence change in each drug-containing well was then expressed relative to the controls. […]

[7] = molecular target: T6, hEP3A/Gqi5 (Homo sapiens, UniProt P43115); assay: hEP3A FLIPR calcium signal study; type: cell-based; conditions: HEK-293(EBNA) cells expressing hEP3A/Gqi5; read-out: Other Receptors (EC50 in nM) hEP3A
T6 construct: expressed in transfected cells; host or cells: HEK-293(EBNA)
T6 sequence (P43115 1-390): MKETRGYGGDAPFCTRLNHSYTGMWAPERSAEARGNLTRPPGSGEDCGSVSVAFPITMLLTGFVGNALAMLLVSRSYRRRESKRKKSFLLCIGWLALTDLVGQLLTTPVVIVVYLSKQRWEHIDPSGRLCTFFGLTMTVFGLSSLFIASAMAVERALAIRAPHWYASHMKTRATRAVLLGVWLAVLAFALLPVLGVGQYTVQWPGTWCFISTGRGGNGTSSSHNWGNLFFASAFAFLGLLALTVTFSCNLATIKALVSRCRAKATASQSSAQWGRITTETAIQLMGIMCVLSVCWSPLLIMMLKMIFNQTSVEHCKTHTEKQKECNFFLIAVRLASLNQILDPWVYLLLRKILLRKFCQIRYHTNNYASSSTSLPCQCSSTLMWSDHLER
Description: as §1, §2, §3, §11, §12

T1 sequence (P43116 whole entry): as the sequence (P43116 whole entry) above

In the case of `CCCCCC(O)c1ccc(N2C(=O)CC[C@@H]2COCc2cccc(C(=O)O)c2)cc1` (mixture of isomers) [Example 11, 3-{(R)-1-[4-(1-Hydroxy-hexyl)-phenyl]-5-oxo-pyrrolidin-2-ylmethoxymethyl}-benzoic acid], the pEC50 [1] was < 5.00, the pEC50 [2] was 6.29 and the pKi [3] was < 5.00.

In the case of `CCCCC(O)c1ccc(N2C(=O)CC[C@@H]2COCc2ccc(C(=O)O)s2)cc1` (mixture of isomers) [Example 12, 5-{(R)-1-[4-(1-Hydroxy-pentyl)-phenyl]-5-oxo-pyrrolidin-2-ylmethoxymethyl}-thiophene-2-carboxylic acid], the pEC50 [1] was 6.67, the pEC50 [2] was 8.10 and the pKi [3] was < 5.00. For the same compound, the pKi [4] was 6.41.

For `CCCCCCC(O)c1ccc(N2C(=O)CC[C@@H]2COCc2ccc(C(=O)O)s2)cc1` (mixture of isomers) [Example 13, 5-{(R)-1-[4-(1-Hydroxy-heptyl)-phenyl]-5-oxo-pyrrolidin-2-ylmethoxymethyl}-thiophene-2-carboxylic acid], the pEC50 [1] was 7.70, the pEC50 [2] was 8.82 and the pKi [3] was < 5.00. For the same compound, the EC50 [5] was 5760 nM and the pKi [4] was 6.72.

In the case of `CCCC(O)c1ccc(N2C(=O)CC[C@@H]2COCc2ccc(C(=O)O)s2)cc1` (mixture of isomers) [Example 14, 5-{(R)-1-[4-(1-Hydroxy-butyl)-phenyl]-5-oxo-pyrrolidin-2-ylmethoxymethyl}-thiophene-2-carboxylic acid], the pEC50 [1] was 6.37, the pEC50 [2] was 7.57 and the pKi [3] was < 5.00. It also gave a pKi [4] of 5.79.

In the case of `CCC(O)c1ccc(N2C(=O)CC[C@@H]2COCc2ccc(C(=O)O)s2)cc1` (mixture of isomers) [Example 15, 5-{(R)-1-[4-(1-Hydroxy-propyl)-phenyl]-5-oxo-pyrrolidin-2-ylmethoxymethyl}-thiophene-2-carboxylic acid], the pEC50 [1] was 5.74, the pEC50 [2] was 6.51 and the pEC50 [6] was < 5.00. For the same compound, the pKi [3] was < 5.00, the EC50 [5] was 7560 nM and the pKi [4] was 5.24.

For `CCCCCC(O)c1ccc(N2C(=O)CC[C@@H]2CCCc2ccc(C(=O)O)s2)cc1` (mixture of isomers) [Example 17, 5-(3-{(S)-1-[4-(1-Hydroxy-hexyl)-phenyl]-5-oxo-pyrrolidin-2-yl}-propyl)-thiophene-2-carboxylic acid], the pEC50 [1] was 8.30, the pEC50 [2] was 9.26 and the pKi [3] was < 5.00. The EC50 [7] was 155 nM, the EC50 [5] was 1230 nM and the pKi [4] was 7.64.

`CCCCCCC(O)c1ccc(N2C(=O)CC[C@@H]2CCCc2ccc(C(=O)O)s2)cc1` (mixture of isomers) [Example 36, 5-(3-{(S)-1-[4-(1-Hydroxy-heptyl)-phenyl]-5-oxo-pyrrolidin-2-yl}-propyl)-thiophene-2-carboxylic acid] was tested, and the pEC50 [1] was 7.52, the pEC50 [6] was < 5.00 and the EC50 [7] was 47 nM. The EC50 [5] was 105 nM.

Compound `CCCCCC(O)c1ccc(N2C(=O)CC[C@@H]2COc2ccc(C(=O)O)cc2)cc1` (mixture of isomers) [Example 43, 4-{(R)-1-[4-(1-Hydroxy-hexyl)-phenyl]-5-oxo-pyrrolidin-2-ylmethoxy}-benzoic acid] has a pEC50 [1] of 5.14, a pKi [3] of 5.06 and a pKi [4] of 4.64.

For `CCCCC[C@@H](O)c1ccc(N2C(=O)CC[C@@H]2/C=C/Cc2ccc(C(=O)O)s2)cc1` (racemic) [Example 16, 5-((E and Z)-3-{(R)-1-[4-(1-Hydroxy-hexyl)-phenyl]-5-oxo-pyrrolidin-2-yl}-allyl)-thiophene-2-carboxylic acid], the pEC50 [1] was 6.65, the pEC50 [2] was 7.82 and the pKi [3] was < 5.00. The pKi [4] was 5.86.
